Entries after “also recorded” stand apart in the source; their conditions may differ.
Assays:
DHFR in MDA-MB-468 cells = system: T1, DHFR in MDA-MB-468 cells; assay: DHFR accumulation assay (Western blot); assay type: cell-based, Human; conditions: for Fold increase in DHFR levels: 24 h
T1 construct: reactions containing 55 μg MDA-MB-468 lysate; endogenous in cells; host or cells: MDA-MB-468
Description: Trypsinized MDA-MB-468 cells were seeded into 6-well plates at a density of 300,000 cells per 2 mL of media and allowed to adhere for 24 h. […] The final concentration of DMSO in each well was 1%. A DMSO-only control was also performed on each individual plate. Cells were then trypsinized, harvested by centrifugation at 200× g for 5 min at 4 °C, and washed once with PBS/PIC. Cell pellets were flash frozen using an ethanol/dry ice bath and stored at −80 °C prior to lysis. Each cell pellet was lysed as described above using 50 μL PBS/PIC per cell pellet. Samples were then analyzed by Western blot, as described below, using 30 μg lysate per lane. Band intensities of DHFR were normalized to the loading control SOD1 via densitometry using ImageJ (Fiji), and each DHFR band was normalized to the DMSO control. Fold-change in DHFR band intensity was plotted against inhibitor concentration (μM). Each experiment was performed two separate times as individual biological replicates (n = 2).
Proteins were electrophoretically separated on a 10% gel, and proteins were transferred to a methanol-activated PVDF membrane using the Trans-Blot Turbo transfer system (Bio-Rad) for 7 min at 1.3 A and 25 V in Trans-Blot Turbo transfer buffer (Bio-Rad). Membranes were blocked with 5% skim milk w/v in TBS-T (20 mM Tris, 150 mM NaCl, 0.05% Tween-20) for 1 h at room temperature. […] The horseradish peroxidase (HRP)-linked anti-mouse IgG secondary antibody (NA931, Cytiva; 1:3000) was added for 1 h at room temperature in 5% skim milk w/v in TBS-T. Signal was detected by adding Immobilon Forte Western HRP Substrate (Millipore), and chemiluminescence was captured on a Sapphire Biomolecular Imager (Azure Biosystems). Band densities were determined using ImageJ (Fiji). The band intensity of DHFR was normalized to the thermostable loading control SOD1 [22].

[1] = system: T2, DHFR in MDA-MB-468 lysates; assay: Lysate cellular thermal shift assay (CETSA) for DHFR; assay type: binding, Human; conditions: 10 μM, MDA-MB-468 lysate, 45 °C for 3 min, DMSO at 37 °C = 100%
T2 construct: reactions containing 55 μg MDA-MB-468 lysate; endogenous in cells; host or cells: MDA-MB-468

[2] = system: STAT3 transcriptional activity in U3A STAT3 luciferase reporter cell line; assay: STAT3 luciferase reporter assay; assay type: cell-based; conditions: for Inhibition of STAT3-dependent luciferase activity: 0.02–20 μM, OSM 10 ng/mL
Description: The STAT3-dependent luciferase reporter assay was performed as previously reported. One day prior to the assay, the U3A STAT3 luciferase reporter cell line was seeded in a 96-well plate at 8000 cells per well. Cells were then incubated with compounds at the indicated concentration, and each well was treated with either media control or stimulated with 10 ng/mL oncostatin M (OSM) and incubated for six hours at 37 °C. Luciferase activity was quantified using the Bright-Glo Luciferase Assay system (Promega) and a Luminoskan Ascent Luminometer (Labsystems). Collected luminescence readings were normalized to DMSO-treated controls. Stimulation with (+OSM) gave luminescence values around 2.5 times that of the unstimulated control (−OSM). Quadruplicates were averaged and plotted with error bars representing standard deviation. Each condition was performed in quadruplicate on two separate occasions (n = 2) with representative data shown. Statistical significance was determined using Ordinary one-way ANOVA with a Dunnett multiple comparison test.

SMILES | DHFR accumulation (DHFR in MDA-MB-468 cells; MDA-MB-468, 24 h) | Normalized Band Density (%) of soluble DHFR [1] | Normalized Band Density (%) of soluble DHFR ([1]; listed as Cycloguanil) | STAT3-dependent luciferase activity ([2]; 20 nM, U3A) | Inhibition of STAT3-dependent luciferase activity [2] | Normalized Band Density (%) of soluble DHFR ([1]; listed as Pyrimethamine) | Fold increase in DHFR levels (DHFR in MDA-MB-468 cells; MDA-MB-468, 10 nM) | Fold increase in DHFR levels (DHFR in MDA-MB-468 cells; MDA-MB-468, 1 µM) | Concentration giving notable accumulation of DHFR (DHFR in MDA-MB-468 cells; MDA-MB-468, 24 h, range 0.012–1 nM)
CC1(C)N=C(N)N=C(N)N1c1ccc(Cl)cc1 [Cyc, Cycloguanil] | required higher concentrations to induce DHFR accumulation; also recorded: failed to induce DHFR accumulation at low nM concentrations | greater than 100% | 125.67 ± 39.6% | significantly inhibited | potent inhibition of luciferase activity |  |  |  | 
CCc1nc(N)nc(N)c1-c1ccc(Cl)cc1 [Pyr, Pyrimethamine] | required higher concentrations to induce DHFR accumulation | greater than 100% |  |  | do not reach full STAT3 inhibition until µM concentrations | 104.12 ± 33.5% |  |  | 
CC1(C)N=C(N)N=C(N)N1c1ccc(CCCCc2ccc(S(=O)(=O)F)cc2)c(Cl)c1 [compound 127159] |  | 99.96 ± 26.2% |  |  | do not reach full STAT3 inhibition until µM concentrations |  | 10 fold | 30 fold | 0.33 nM

From publication PMC9961069 (Metabolites, 2023)
